Test results reported in ChEMBL document CHEMBL4483862, “Open-source discovery of chemical leads for next-generation chemoprotective antimalarials” (2018).

Test system: Plasmodium berghei
Experiment: Luciferase/luciferin-expressing antifolate-resistant parasites were used to infect a culture of HepG2 cells that were pre-incubated with compounds. Infected hepatocytes emit light due to the luciferase reaction. Assay results are presented as the percent inhibition of light emission compared to control. […]
Format: functional
Settings: sporozoite; for IC90: read-out: LUCIFERASE INFECTION ASSAY - IC90
[1] = read-out: LUCIFERASE INFECTION ASSAY - IC50

Row | Structure (SMILES) | IC90 [µM] | IC50 [1] [µM] | further results
1 | CCOC(=O)/C=C/c1ccc(NC(=O)C2CCCN2c2ncnc3ccccc23)cc1 (stereo unspecified) | > 10 | – | IC50 (HEPG2TOX_HILL_SLOPE 2.7, HEPG2TOX_R_SQUARED 0.523, PBLUC_HILL_SLOPE 3.32, PBLUC_R_SQUARED 0.679, read-out: LUCIFERASE INFECTION ASSAY - IC50): 6.13 µM
2 | COC(=O)c1ccc(/C=C/C(=O)OCC(=O)C(C#N)=C2Nc3ccccc3N2)cc1 | > 10 | > 10 | –
3 | O=C(NC(=S)Nc1ccc(Oc2cc(C(F)(F)F)cc(C(F)(F)F)c2)cc1)c1ccccc1 | 4.3 | – | IC50 (PBLUC_HILL_SLOPE 1.93, PBLUC_R_SQUARED 0.641, read-out: LUCIFERASE INFECTION ASSAY - IC50): 1.37 µM
4 | C=CCOc1ccccc1CN(c1ccc2c(c1)OCCO2)S(=O)(=O)c1cccs1 | > 10 | – | IC50 (FFLUC_HILL_SLOPE 11.5, FFLUC_R_SQUARED 0.0724, read-out: LUCIFERASE INFECTION ASSAY - IC50): > 10 µM
5 | COc1ccc(NC(C(=O)Nc2cccc(C(F)(F)F)c2)c2ccccc2)cc1OC (stereo unspecified) | > 10 | – | IC50 (PBLUC_HILL_SLOPE 1.54, PBLUC_R_SQUARED 0.609, read-out: LUCIFERASE INFECTION ASSAY - IC50): 5.09 µM
6 | CCOC(=O)c1c(C)[nH]c(C(=O)COC(=O)c2[nH]nc3ccccc23)c1C | > 10 | – | IC50 (HEPG2TOX_HILL_SLOPE 3.07, HEPG2TOX_R_SQUARED 0.979, PBLUC_HILL_SLOPE 5.58, PBLUC_R_SQUARED 0.622, read-out: LUCIFERASE INFECTION ASSAY - IC50): 8.71 µM
7 | CN(C)c1cccc(-c2cnc3cnc(-c4cccc(C(=O)NCCO)c4)cn23)c1 | > 8.22 | – | IC50 (PBLUC_HILL_SLOPE 1.98, PBLUC_R_SQUARED 0.622, read-out: LUCIFERASE INFECTION ASSAY - IC50): 5.11 µM
8 | CCOC(=O)c1cnn(-c2ccc(NC(=O)COc3ccccc3C#N)cc2)c1C(F)(F)F | > 10 | > 10 | –
9 | CCc1c(C#N)c(SCC(=O)c2cc(C)n(-c3ccccc3F)c2C)nc2c1C(=O)CC(C)(C)C2 | > 10 | 5.79 | –
10 | Cc1ccc(S(=O)(=O)NN=c2nc[nH]c3sccc23)cc1 | 5.7 | 2.59 | –
11 | Cc1ccc(C(=O)NCCSc2ccc(Cl)cc2)o1 | > 10 | > 10 | –
12 | CCOC(=O)c1cnn(-c2c(Cl)cc(Cl)cc2Cl)c1-c1ccccc1 | > 8.34 | > 8.34 | –
13 | Cc1cc2nnc(SC(C)C(=O)Nc3ccc([N+](=O)[O-])cc3C(F)(F)F)n2c2ccccc12 (stereo unspecified) | > 10 | > 10 | –
14 | CC(C)c1ccc(NC(=O)c2csc(C(O)c3ccccc3)n2)cc1 (stereo unspecified) | > 10 | – | IC50 (HEPG2TOX_HILL_SLOPE 0.582, HEPG2TOX_R_SQUARED 0.837, PBLUC_HILL_SLOPE 1.67, PBLUC_R_SQUARED 0.415, read-out: LUCIFERASE INFECTION ASSAY - IC50): 7.47 µM
15 | O/N=C(\c1ccc(Cl)cc1)c1cc2ccccc2o1 | > 12.1 | – | IC50 (PBLUC_HILL_SLOPE 1.16, PBLUC_R_SQUARED 0.26, read-out: LUCIFERASE INFECTION ASSAY - IC50): 6.29 µM
16 | COc1ccc(Nc2nc(NCCO)c3ccccc3n2)cc1 | > 10 | > 10 | –
17 | COc1ccc(/C=C2\CCCC3C2=NN(C(=O)CSc2ccccn2)C3c2ccc(OC)cc2)cc1 (stereo unspecified) | 9.76 | – | IC50 (PBLUC_HILL_SLOPE 1.58, PBLUC_R_SQUARED 0.267, read-out: LUCIFERASE INFECTION ASSAY - IC50): 2.44 µM
18 | CCn1c2ccccc2c2cc(NC(=O)C3CCCN(c4ncccn4)C3)ccc21 (stereo unspecified) | 2.28 | – | IC50 (HEPG2TOX_HILL_SLOPE 1.64, HEPG2TOX_R_SQUARED 0.977, PBLUC_HILL_SLOPE 1.41, PBLUC_R_SQUARED 0.865, read-out: LUCIFERASE INFECTION ASSAY - IC50): 0.477 µM
19 | O=C(Nc1ccc(OC(F)(F)F)cc1)Nc1ccc2nc(-c3ccco3)nn2c1 | 7.51 | – | IC50 (PBLUC_HILL_SLOPE 672, PBLUC_R_SQUARED 0.263, read-out: LUCIFERASE INFECTION ASSAY - IC50): 7.48 µM
20 | CC(C)N(CC(=O)Nc1ccc(Cl)cc1C(F)(F)F)C(=O)CNC(c1ccccc1)c1ccccc1 | > 10 | > 10 | –
21 | Cn1ccnc1Sc1cnc(SCC(=O)c2ccc(Cl)cc2)nc1-c1ccccc1 | > 7.28 | > 7.28 | –
22 | Cc1ccccc1-c1cc2c(cn1)nc(NCc1ccccc1F)n2C | 8.53 | – | IC50 (HEPG2TOX_HILL_SLOPE 2.16, HEPG2TOX_R_SQUARED 0.829, PBLUC_HILL_SLOPE 2.78, PBLUC_R_SQUARED 0.577, read-out: LUCIFERASE INFECTION ASSAY - IC50): 3.87 µM
23 | Cn1c(Sc2ncc([N+](=O)[O-])s2)n[nH]c1=O | 7.26 | – | IC50 (FFLUC_HILL_SLOPE 1.35, FFLUC_R_SQUARED 0.48, HEPG2TOX_HILL_SLOPE 8.97, HEPG2TOX_R_SQUARED 0.707, PBLUC_HILL_SLOPE 6.36, PBLUC_R_SQUARED 0.781, read-out: LUCIFERASE INFECTION ASSAY - IC50): 5.14 µM
24 | COc1cc(Nc2cncc(-c3ccc(N)cc3)n2)cc(OC)c1OC | 1.84 | – | IC50 (HEPG2TOX_HILL_SLOPE 1.6, HEPG2TOX_R_SQUARED 0.917, PBLUC_HILL_SLOPE 3.36, PBLUC_R_SQUARED 0.719, read-out: LUCIFERASE INFECTION ASSAY - IC50): 0.955 µM

Row | Structure (SMILES) | IC90 [µM] | IC50 [1] [µM] | further results
25 | CCc1c(C)[nH]c2c(-c3ccc(Cl)cc3)cnn2c1=O | 11 | 5.93 | –
26 | Cc1noc(C)c1S(=O)(=O)N(C)Cc1ccc(-c2ccc(Cl)cc2)o1 | > 10 | > 10 | –
27 | CCOC(=O)c1ccc(-n2c(C)cc(/C=C(\C#N)c3nc4ccccc4[nH]3)c2C)cc1 | > 10 | > 10 | –
28 | CS(=O)(=O)c1ccc(-c2ccc3ncc(-c4cccc(CO)c4)n3n2)cc1 | 3.89 | – | IC50 (HEPG2TOX_HILL_SLOPE 2.77, HEPG2TOX_R_SQUARED 0.883, PBLUC_HILL_SLOPE 15.3, PBLUC_R_SQUARED 0.0795, read-out: LUCIFERASE INFECTION ASSAY - IC50): 3.37 µM
29 | CCOc1ccccc1NC(=O)Cc1nc2nc(C)cc(C)n2n1 | > 10.1 | > 10.1 | –
30 | COc1cccc(-c2ccc3ncc(-c4ccc5c(c4)OCO5)n3n2)c1 | 9 | – | IC50 (HEPG2TOX_HILL_SLOPE 2.64, HEPG2TOX_R_SQUARED 0.763, PBLUC_HILL_SLOPE 3.7, PBLUC_R_SQUARED 0.498, read-out: LUCIFERASE INFECTION ASSAY - IC50): 4.97 µM
31 | CCOc1ccc(S(=O)(=O)Nc2cccc(C(=O)N3CCN(c4ccccn4)CC3)c2)cc1 | > 10 | > 10 | –
32 | CCc1ccccc1NCC(=O)Nc1cc(Cl)ccc1-n1cncn1 | > 10 | > 10 | –
33 | O=C(COC(=O)c1ccccc1Nc1cccc(C(F)(F)F)c1)c1ccc(C2CCCCC2)cc1 | > 10 | > 10 | –
34 | O=C1CC(c2ccccc2Cl)Cc2c1cnn2-c1nc2ccccc2[nH]1 (stereo unspecified) | 3.82 | 3.26 | –
35 | COc1ccc(C2=NOC(C(N)=O)C2)cc1OC (stereo unspecified) | 9.25 | – | IC50 (PBLUC_HILL_SLOPE 2.3, PBLUC_R_SQUARED 0.443, read-out: LUCIFERASE INFECTION ASSAY - IC50): 3.55 µM
36 | O=C(C[n+]1ccc(NC(=O)c2ccccc2)cc1)c1ccc(F)cc1 | > 7.95 | – | IC50 (PBLUC_HILL_SLOPE 9.15, PBLUC_R_SQUARED 0.444, read-out: LUCIFERASE INFECTION ASSAY - IC50): 6.42 µM
37 | N#CC1=C2C=CC=CN2C(c2ccccc2)(C(F)(F)F)N=C1SCC(=O)Nc1ccc(Cl)c(Cl)c1 (stereo unspecified) | > 10 | > 10 | –
38 | CCc1ccc(NC(=O)C[n+]2c3n(c4c(F)c(F)ccc42)CCCCC3)cc1 | 9.39 | – | IC50 (HEPG2TOX_HILL_SLOPE 3.71, HEPG2TOX_R_SQUARED 0.507, PBLUC_HILL_SLOPE 2.96, PBLUC_R_SQUARED 0.697, read-out: LUCIFERASE INFECTION ASSAY - IC50): 4.47 µM
39 | CCCCC(CC)C[n+]1c(C)cc(C=C2Sc3ccccc3N2CC)cc1C (stereo unspecified) | 0.111 | – | IC50 (HEPG2TOX_HILL_SLOPE 1.26, HEPG2TOX_R_SQUARED 0.976, PBLUC_HILL_SLOPE 1.65, PBLUC_R_SQUARED 0.944, read-out: LUCIFERASE INFECTION ASSAY - IC50): 0.0293 µM
40 | O=C(Nc1ccc(Oc2ccc(F)cc2)nc1)c1cccc(-n2cnnn2)c1 | > 10 | – | IC50 (PBLUC_HILL_SLOPE 8.75, PBLUC_R_SQUARED 0.449, read-out: LUCIFERASE INFECTION ASSAY - IC50): 8.72 µM
41 | FC(F)(F)c1cccc(NC(=S)NC2CC3C=CC2C3)c1 (stereo unspecified) | > 10.6 | – | IC50 (PBLUC_HILL_SLOPE 0.542, PBLUC_R_SQUARED 0.315, read-out: LUCIFERASE INFECTION ASSAY - IC50): 4.71 µM
42 | S=C(N/N=C\c1cccc2ccccc12)Nc1cccc(Cl)c1Cl | > 8.82 | > 8.82 | –
43 | CCOc1cccc(-c2cn3c(-c4ccc(Cl)cc4)cnc3cn2)c1 | > 9.43 | 8.98 | –
44 | CCOc1ccc2nc(SCC(=O)N3Cc4ccccc4CC3C(=O)O)sc2c1 (stereo unspecified) | > 10 | > 10 | –
45 | Cc1nc2ccccc2n1CCC(=O)Nc1cccc(Cl)c1 | 8.51 | – | IC50 (PBLUC_HILL_SLOPE 4.62, PBLUC_R_SQUARED 0.253, read-out: LUCIFERASE INFECTION ASSAY - IC50): 5.29 µM
46 | Cc1nc(NCc2ccc(N3CCN(C)CC3)nc2)c2c(-c3ccccc3)csc2n1 | 3.73 | – | IC50 (HEPG2TOX_HILL_SLOPE 1.47, HEPG2TOX_R_SQUARED 0.785, PBLUC_HILL_SLOPE 14.9, PBLUC_R_SQUARED 0.788, read-out: LUCIFERASE INFECTION ASSAY - IC50): 3.22 µM
47 | N#CCCN(C(=O)CSc1nc2cc(S(=O)(=O)Nc3ccc(Cl)cc3)ccc2o1)c1ccccc1 | 7.89 | – | IC50 (PBLUC_HILL_SLOPE 1.44, PBLUC_R_SQUARED 0.751, read-out: LUCIFERASE INFECTION ASSAY - IC50): 1.72 µM
48 | Cc1nc(C(=O)N2CCC(C)(C(=O)NS(=O)(=O)C3CC3)C2)c(C)o1 (stereo unspecified) | > 9.28 | > 9.28 | –
